Molecules are shown by their SMILES.

Consider 31 compounds from US12441689B2 (EpiVario, Inc., priority 2019, dated 2025).

human ACSS2 protein, sequence (Q9NR19 whole entry): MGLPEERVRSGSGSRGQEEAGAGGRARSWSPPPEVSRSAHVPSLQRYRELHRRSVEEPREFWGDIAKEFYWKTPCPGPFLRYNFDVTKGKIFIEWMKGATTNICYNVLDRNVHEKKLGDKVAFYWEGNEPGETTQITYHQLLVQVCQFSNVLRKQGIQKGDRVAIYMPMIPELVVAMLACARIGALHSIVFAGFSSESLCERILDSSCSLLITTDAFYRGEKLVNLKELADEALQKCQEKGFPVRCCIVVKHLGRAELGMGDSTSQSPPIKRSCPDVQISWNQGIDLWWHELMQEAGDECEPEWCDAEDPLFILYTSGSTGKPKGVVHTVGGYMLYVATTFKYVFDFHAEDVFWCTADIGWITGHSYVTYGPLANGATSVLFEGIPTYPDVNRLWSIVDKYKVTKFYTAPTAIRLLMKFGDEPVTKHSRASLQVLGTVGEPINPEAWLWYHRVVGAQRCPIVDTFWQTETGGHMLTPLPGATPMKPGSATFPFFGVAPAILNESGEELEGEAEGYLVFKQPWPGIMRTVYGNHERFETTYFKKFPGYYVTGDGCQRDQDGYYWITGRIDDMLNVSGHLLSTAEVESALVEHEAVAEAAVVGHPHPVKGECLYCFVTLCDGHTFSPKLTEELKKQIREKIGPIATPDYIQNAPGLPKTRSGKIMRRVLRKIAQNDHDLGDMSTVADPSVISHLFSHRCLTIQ

The test concerns the target human ACSS2 protein (Homo sapiens (Human), UniProt Q9NR19). Description: ACSS2 Cell-Free Activity Assay (Cell-Free IC50). The conditions noted are these: 10 nM human ACSS2 protein, 90 minutes at 37 C, pyrophosphatase-coupled, Biomol Green absorbance at 620 nm; read-out: ACSS2 Biochemical IC50. An excerpt:
ACSS2 Cell-Free Activity Assay (Cell-Free IC50)
The IC50 is the point on the concentration scale where inhibition reaches its midpoint. For `CCC(F)(F)c1cccc(NC(=O)C2CCN(Cc3ccc(OC)cc3)C(c3ccc(OC)cc3)C2O)c1` (stereo not shown) [Compound 275, N-(3-(1,1-difluoropropyl)phenyl)-3-hydroxy-1-(4-methoxybenzyl)-2-(4-methoxyphenyl)piperidine-4-carboxamide], the IC50 is more than 100 nM.
As for `CCC(F)(F)c1cccc(NC(=O)C2C(=O)N(c3cc(CC4CCCCC4)c(OC)c(-c4ccccc4)c3)N=C2C)c1` (stereo not shown) [Compound 128, 1-(5-(cyclohexylmethyl)-6-methoxy-[1,1′-biphenyl]-3-yl)-N-(3-(1,1-difluoropropyl)phenyl)-3-methyl-5-oxo-4,5-dihydro-1H-pyrazole-4-carboxamide], the figure is 1 to 100 nM.
As for `CCC(F)(F)c1cccc(NC(=O)c2nc(-c3ccc(OC(F)F)cc3)cnc2C)c1` [Compound 125, 6-(4-(difluoromethoxy)phenyl)-N-(3-(1,1-difluoropropyl)phenyl)-3-methylpyrazine-2-carboxamide], the figure is more than 100 nM.
As for `CCC(F)(F)c1cccc(NC(=O)c2nc(C)c(-c3ccc(OC(F)F)c(-c4ccccc4)c3)nc2C)c1` [Compound 103, 5-(6-(difluoromethoxy)-[1,1′-biphenyl]-3-yl)-N-(3-(1,1-difluoropropyl)phenyl)-3,6-dimethylpyrazine-2-carboxamide], the figure is more than 100 nM; as for `COc1ccc(N2N=C(C)C(F)(C(=O)Nc3cccc(C(C)(F)F)c3)C2=O)cc1` (stereo not shown) [Compound 209, N-(3-(1,1-difluoroethyl)phenyl)-4-fluoro-1-(4-methoxyphenyl)-3-methyl-5-oxo-4,5-dihydro-1H-pyrazole-4-carboxamide], less than 1 nM; as for `Cc1nn(-c2ccc(OC(F)F)cc2)c(F)c1C(=O)Nc1cccc(C(C)(F)F)c1` [Compound 200, N-(3-(1,1-difluoroethyl)phenyl)-1-(4-(difluoromethoxy)phenyl)-5-fluoro-3-methyl-1H-pyrazole-4-carboxamide], more than 100 nM.
On to `COc1c(C(=O)Nc2cccc(C(C)(F)F)c2)c(C)nn1-c1ccc(OC(F)F)cc1` [Compound 199, N-(3-(1,1-difluoroethyl)phenyl)-1-(4-(difluoromethoxy)phenyl)-5-methoxy-3-methyl-1H-pyrazole-4-carboxamide], for which the IC50 lay in the range of 1 to 100 nM.
For `Cc1nn(-c2ccc(OC(F)F)c(-c3ccccc3)c2)cc1C(=O)Nc1cccc(C(C)(F)F)c1` [Compound 186, N-(3-(1,1-difluoroethyl)phenyl)-1-(6-(difluoromethoxy)-[1,1’-biphenyl]-3-yl)-3-methyl-1H-pyrazole-4-carboxamide] the value was 1 to 100 nM; for `CNc1c(C(=O)Nc2cccc(C(C)(F)F)c2)c(C)nn1-c1ccc(OC(F)F)cc1` [Compound 162, N-(3-(1,1-difluoroethyl)phenyl)-1-(4-(difluoromethoxy)phenyl)-3-methyl-5-(methylamino)-1H-pyrazole-4-carboxamide], 1 to 100 nM; for `Cc1nn(-c2ccc(OC(F)F)cc2)c(OC(=O)N2CCN(C(C)(C)CO)CC2)c1C(=O)Nc1cccc(C(C)(F)F)c1` [Compound 185, 4-((3-(1,1-difluoroethyl)phenyl)carbamoyl)-1-(4-(difluoromethoxy)phenyl)-3-methyl-1H-pyrazol-5-yl 4-(1-hydroxy-2-methylpropan-2-yl)piperazine-1-carboxylate], more than 100 nM.
For `CCC(F)(F)c1cccc(NC(=O)c2n[nH]c(-c3ccc(OC)cc3)c2C(C)=O)c1` [Compound 232, 4-acetyl-N-(3-(1,1-difluoropropyl)phenyl)-5-(4-methoxyphenyl)-1 H-pyrazole-3-carboxamide] the value was more than 100 nM; for `Cc1cc(C(=O)Nc2cccc(C(C)(F)F)c2)nc(-c2ccc(OC(F)F)c(-c3ccccc3)c2)n1` [Compound 130, N-(3-(1,1-difluoroethyl)phenyl)-2-(6-(difluoromethoxy)-[1,1′-biphenyl]-3-yl)-6-methylpyrimidine-4-carboxamide], 1 to 100 nM; for `COc1c(Cc2ccc(O)cc2)cc(N2N=C(C)C(C(=O)Nc3cccc(C(C)(F)F)c3)C2=O)cc1-c1ccccc1` (stereo not shown) [Compound 228, N-(3-(1,1-difluoroethyl)phenyl)-1-(5-(4-hydroxybenzyl)-6-methoxy-[1,1′-biphenyl]-3-yl)-3-methyl-5-oxo-4,5-dihydro-1H-pyrazole-4-carboxamide], 1 to 100 nM.
Take `Cc1nc(-c2ccc(OC(F)F)c(-c3ccccc3)c2)cnc1C(=O)Nc1cccc(C(C)(F)F)c1` [Compound 135, N-[3-(1,1-difluoroethyl)phenyl]-5-[4-(difluoromethoxy)-3-phenyl-phenyl]-3-methyl-pyrazine-2-carboxamide]: the IC50 was 1 to 100 nM.
For the compound `Cc1nn(-c2ccc(OC(F)F)c(-c3cocn3)c2)cc1C(=O)Nc1cccc(C(C)(F)F)c1` [Compound 149, N-(3-(1,1-difluoroethyl)phenyl)-1-(4-(difluoromethoxy)-3-(oxazol-4-yl)phenyl)-3-methyl-1H-pyrazole-4-carboxamide], the IC50 was more than 100 nM.
With `CCC(F)(F)c1cccc(NC(=O)c2oc(-c3ccc(OC(F)F)c(-c4ccccn4)c3)nc2C)c1` [Compound 214, 2-(4-(difluoromethoxy)-3-(pyridin-2-yl)phenyl)-N-(3-(1,1-difluoropropyl)phenyl)-4-methyloxazole-5-carboxamide], the IC50 was more than 100 nM.
As for `CCC(F)(F)c1cccc(NC(=O)c2c(C)oc(-c3ccc(OC)c(-c4ncccc4C)c3)[n+]2[O-])c1` [Compound 251, 4-((3-(1,1-difluoropropyl)phenyl)carbamoyl)-2-(4-methoxy-3-(3-methylpyridin-2-yl)phenyl)-5-methyloxazole 3-oxide], the figure is more than 100 nM.
In the case of `Cc1oc(-c2ccc(OC(F)F)c(-c3ccccn3)c2)nc1C(=O)Nc1cccc(C(C)(F)F)c1` [Compound 258, N-(3-(1,1-difluoroethyl)phenyl)-2-(4-(difluoromethoxy)-3-(pyridin-2-yl)phenyl)-5-methyloxazole-4-carboxamide], the IC50 was more than 100 nM.
As for `CCC(F)(F)c1cccc(NC(=O)C2C(=O)N(c3cc(Cc4ccc(Cl)cc4)c(OC)c(-c4ccccc4)c3)N=C2C)c1` (stereo not shown) [Compound 236, 1-(5-(4-chlorobenzyl)-6-methoxy-[1,1′-biphenyl]-3-yl)-N-(3-(1,1-difluoropropyl)phenyl)-3-methyl-5-oxo-4,5-dihydro-1H-pyrazole-4-carboxamide], the figure is 1 to 100 nM; as for `CCc1c(C(=O)Nc2cccc(C(C)(F)F)c2)c(C)nn1-c1ccc(OC(F)F)c(-c2ccccc2)c1` [Compound 151, N-[3-(1,1-difluoroethyl)phenyl]-1-[4-(difluoromethoxy)-3-phenyl-phenyl]-5-ethyl-3-methyl-pyrazole-4-carboxamide], more than 100 nM; as for `CCC1(C(=O)Nc2cccc(C(C)(F)F)c2)C(=O)N(c2ccc(OC(F)F)cc2)N=C1C` (stereo not shown) [Compound 159, N-(3-(1,1-difluoroethyl)phenyl)-1-(4-(difluoromethoxy)phenyl)-4-ethyl-3-methyl-5-oxo-4,5-dihydro-1H-pyrazole-4-carboxamide], 1 to 100 nM.
Regarding `CCc1c(C(=O)Nc2cccc(C(C)(F)F)c2)c(C)nn1-c1ccc(OC(F)F)c(-c2ccccn2)c1` [Compound 148, N-[3-(1,1-difluoroethyl)phenyl]-1-[4-(difluoromethoxy)-3-(2-pyridyl)phenyl]-5-ethyl-3-methyl-pyrazole-4-carboxamide], the IC50 is more than 100 nM.
For `Cc1nc(-c2ccc(OC(F)F)c(-c3ccccc3)c2)c(C)nc1C(=O)Nc1cccc(C(C)(F)F)c1` [Compound 104, N-(3-(1,1-difluoroethyl)phenyl)-5-(6-(difluoromethoxy)-[1,1′-biphenyl]-3-yl)-3,6-dimethylpyrazine-2-carboxamide] the value was more than 100 nM; for `Cc1oc(-c2ccc(OC(F)F)c(-c3ccccc3)c2)nc1C(=O)Nc1cccc(C(C)(F)F)c1` [Compound 124, N-[3-(1,1-difluoroethyl)phenyl]-2-[4-(difluoromethoxy)-3-phenyl-phenyl]-5-methyl-oxazole-4-carboxamide], more than 100 nM; for `CCC(F)(F)c1cccc(NC(=O)c2nc(-c3ccc(OC(F)F)c(-c4ccccc4)n3)[nH]c2C)c1` [Compound 260, 2-(5-(difluoromethoxy)-6-phenylpyridin-2-yl)-N-(3-(1,1-difluoropropyl)phenyl)-5-methyl-1 H-imidazole-4-carboxamide], more than 100 nM.
As for `CC1=NN(c2ccc(OC(C)C)cc2)C(=O)C1(F)C(=O)Nc1cccc(C(C)(F)F)c1` (stereo not shown) [Compound 208, N-(3-(1,1-difluoroethyl)phenyl)-4-fluoro-1-(4-isopropoxyphenyl)-3-methyl-5-oxo-4,5-dihydro-1H-pyrazole-4-carboxamide], the figure is less than 1 nM; as for `CCC(F)(F)c1cccc(NC(=O)c2nc(-c3ccc(OC(F)F)c(-c4ccccn4)c3)oc2C)c1` [Compound 259, 2-(4-(difluoromethoxy)-3-(pyridin-2-yl)phenyl)-N-(3-(1,1-difluoropropyl)phenyl)-5-methyloxazole-4-carboxamide], more than 100 nM; as for `CC1=NN(c2ccc(OC(F)F)cc2)C(=O)C1(C)C(=O)Nc1cccc(C(C)(F)F)c1` (stereo not shown) [Compound 174, N-(3-(1,1-difluoroethyl)phenyl)-1-(4-(difluoromethoxy)phenyl)-3,4-dimethyl-5-oxo-4,5-dihydro-1H-pyrazole-4-carboxamide], more than 100 nM.
Regarding `CCc1c(C(=O)Nc2cccc(C(C)(F)F)c2)c(C)nn1-c1ccc(OC(F)F)c(-c2cccnc2)c1` [Compound 152, N-[3-(1,1-difluoroethyl)phenyl]-1-[4-(difluoromethoxy)-3-(3-pyridyl)phenyl]-5-ethyl-3-methyl-pyrazole-4-carboxamide], the IC50 is more than 100 nM.
For `CC(F)(F)c1cccc(NC(=O)C2C(=O)N(c3ccc(OC(F)F)cc3)N=C2CS)c1` (stereo not shown) [Compound 197] the value was more than 100 nM; for `CC1=NN(c2ccc(OC(F)F)cc2)C(=O)C1(C)C(=O)Nc1cc(Cl)c(F)c(Cl)c1` (stereo not shown) [Compound 165, N-(3,5-dichloro-4-fluoro-phenyl)-1-[4-(difluoromethoxy)phenyl]-3,4-dimethyl-5-oxo-pyrazole-4-carboxamide], more than 100 nM.
